According to paper PMC10485887, “PET Evaluation of the Novel F-18 Labeled Reversible Radioligand [^18F]GEH200449 for Detection of Monoamine Oxidase-B in the Non-Human Primate Brain” (ACS Chemical Neuroscience, 2023):

Tests used:
[1] = test system: MAO-B; parameters: method as in PMID 33284012; settings: autoradiography; cited from earlier work
[2] = test system: MAO-B; format: in vivo, Macaca fascicularis; settings: from pretreatment and displacement with reference competitors
Procedure: Each PET measurement was performed on a separate experimental day. Experiments conducted in the same NHP were separated by at least 6 weeks. Baseline PET measurements were initially undertaken in each of the five NHPs.
Time curves for regional [^18F]GEH200449 binding at baseline were analyzed by kinetic modeling using 1-TC and 2-TC models,[32] and VT as outcome measures. Akaike information criterion[33] and F statistics were applied to select the preferred model. Regional estimates of VT for [^18F]GEH200449 were also obtained using the Logan linear graphical method[34] with t* fixed at 40 min. The analyses were performed using the kinetic modeling tool in PMOD v. 4.3. Occupancy at [^18F]GEH200449 binding sites was estimated based on regional VT values obtained by the Logan method at baseline and after drug administration according to a graphical procedure described in the literature.[22]

Compound: O=c1ccoc2ccc(OCc3ccc([18F])nc3)cc12 [[^18F]GEH200449]
- binding in human brain tissue [1]: specific binding to MAO-B
- non-specific binding in human brain tissue [1]: low
- character of binding in the NHP brain [2]: reversible and selective toward MAO-B
